# Assay results: publication PMC5421785, “Citrullination only infrequently impacts peptide binding to HLA class II MHC” (PLoS ONE, 2017)
# Square brackets hold non-standard residues; d marks the D form. Peptide text beside a SMILES is read from it. Cit = NC(=O)NCCC[C@H](N)C(=O)O
# Assays:
# Test in all cases: HLA class II peptide binding, inhibition of radiolabeled peptide binding to purified MHC; on IC50 DRB1*01:01: competition with radiolabeled peptide (0.1–1 nM); on IC50 DRB1*04:01: competition with radiolabeled peptide (0.1–1 nM)
# DRB1*08:02 = DRB1*08:02 (Homo sapiens, UniProt P01903+P01911, A100R/A103L/A169T/F76Y/H45Y/I96F/K41T/L162R/M171V/P40S/Q125H/Q178H/Q39Y/Q99D/R218S/R42G/S66Y/V115G/W38E); details: Other DR, competition with radiolabeled peptide, two-day incubation, three or more independent experiments
# DRB1*12:01 = DRB1*12:01 (Homo sapiens, UniProt P01903+P01911, A100R/A169T/D57E/D86V/F55L/H45Y/K41T/L162R/M171V/P40S/Q125H/Q178H/Q39Y/Q99D/R42G/S66L/T262R/V114A/V67L/W38E/Y59H/Y61H/Y89S); details: SE-, competition with radiolabeled peptide, two-day incubation, three or more independent experiments
# DRB5*01:01 = target: T1, DRB5*01:01 (Homo sapiens, UniProt P01903+Q30154); details: Other DR, competition with radiolabeled peptide, two-day incubation, three or more independent experiments
# T1 construct: EBV transformed homozygous cell lines were used as sources of MHC molecules; endogenous in cells; host or cells: EBV transformed homozygous cell lines
# DRB1*13:02 = DRB1*13:02 (Homo sapiens, UniProt P01903+P01911, A100E/A169T/K41T/L162R/M171V/P40S/Q125H/Q178H/Q39Y/Q99D/R42S/S66N/T262R/V115G/W38E/Y61H); details: SE-, competition with radiolabeled peptide, two-day incubation, three or more independent experiments
# DRB1*03:01 = DRB1*03:01 (Homo sapiens, UniProt P01903+P01911, A100K/A102G/A103R/A169T/F55Y/I96L/K41T/L162R/M171V/P40S/Q125H/Q178H/Q39Y/R42S/S66N/T106N/T262R/W38E/Y61H); details: Other DR, competition with radiolabeled peptide, two-day incubation, three or more independent experiments
# HLA-DRB1*04:01 = target: T2, HLA-DRB1*04:01 (Homo sapiens, UniProt P01903+P01911, A100K/A169T/F76Y/I96L/K127E/L162R/M171V/N62H/P40V/Q125Y/R42H/S133A/S149N/S66Y/V115G/V209L/W38E); details: read-out: IC50 DRB1*04:01; further: competition with radiolabeled peptide (0.1–1 nM)
# T2 construct: EBV transformed homozygous cell lines were used as sources of MHC molecules; endogenous in cells; host or cells: EBV transformed homozygous cell lines
# HLA-DRB1*01:01 = target: T3, HLA-DRB1*01:01 (Homo sapiens, UniProt P01903+P01911, A100R/D57E/F55L/F60I/F76Y/I96L/L162R/M171V/P40L/Q125E/R42F/V115G/Y59C); details: read-out: IC50 DRB1*01:01; further: competition with radiolabeled peptide (0.1–1 nM)
# T3 construct: EBV transformed homozygous cell lines were used as sources of MHC molecules; endogenous in cells; host or cells: EBV transformed homozygous cell lines
# DRB1*11:01 = DRB1*11:01 (Homo sapiens, UniProt P01903+P01911, A100R/A169T/A87E/I96F/K41T/L162R/M171V/P40S/Q125H/Q178H/Q39Y/Q99D/R42S/S66Y/T262R/V115G/W38E); details: SE-, competition with radiolabeled peptide, two-day incubation, three or more independent experiments
# DRB3*02:02 = DRB3*02:02 (Homo sapiens, UniProt P01903+P79483, A212P/D57E/F66Y/L67A/R103Q/R218S/R40L/S89Y/T80R/V86D/Y55F/Y59H); details: Other DR, competition with radiolabeled peptide, two-day incubation, three or more independent experiments
# DRB1*04:04 = DRB1*04:04 (Homo sapiens, UniProt P01903+P01911, A100R/A169T/F76Y/I96L/K127E/L162R/M171V/N62H/P40V/Q125Y/R42H/S133A/S149N/S66Y/V209L/W38E); details: SE+, competition with radiolabeled peptide, two-day incubation, three or more independent experiments
# DRB1*04:02 = DRB1*04:02 (Homo sapiens, UniProt P01903+P01911, A100E/A169T/F76Y/K127E/L162R/M171V/N62H/P40V/Q125Y/Q99D/R42H/S133A/S149N/S66Y/V209L/W38E); details: SE-, competition with radiolabeled peptide, two-day incubation, three or more independent experiments
# DRB1*10:01 = DRB1*10:01 (Homo sapiens, UniProt P01903+P01911, A100R/A169T/D57E/F55L/F60V/F69Y/F76Y/I96L/L162R/M171V/P40V/Q260P/Q39E/Q99R/R195Q/R42F/S149N/S66Y/T210M/V115G/V67A/W38E/Y59R/Y61H); details: SE+, competition with radiolabeled peptide, two-day incubation, three or more independent experiments
# DRB1*16:02 = DRB1*16:02 (Homo sapiens, UniProt P01903+P01911, A100R/F76Y/I96L/Q99D/V115G); details: SE-, competition with radiolabeled peptide, two-day incubation, three or more independent experiments
# DRB4*01:01 = target: T4, DRB4*01:01 (Homo sapiens, UniProt P01903+P13762, G164S); details: Other DR, competition with radiolabeled peptide, two-day incubation, three or more independent experiments
# T4 construct: EBV transformed homozygous cell lines were used as sources of MHC molecules; endogenous in cells; host or cells: EBV transformed homozygous cell lines
# DRB1*15:01 = target: T5, DRB1*15:01 (Homo sapiens, UniProt P01903+P01911); details: SE-, competition with radiolabeled peptide, two-day incubation, three or more independent experiments
# T5 construct: EBV transformed homozygous cell lines were used as sources of MHC molecules; endogenous in cells; host or cells: EBV transformed homozygous cell lines
# DRB1*09:01 = DRB1*09:01 (Homo sapiens, UniProt P01903+P01911, A100R/A103E/D57H/D86V/F55Y/F60I/F76Y/I96F/K127E/L162R/M171V/P40D/Q125H/Q99R/R33Q/R42F/S133A/S66N/T210M/V115G/W38K/Y107V/Y59G/Y89S); details: Other DR, competition with radiolabeled peptide, two-day incubation, three or more independent experiments
# DRB1*07:01 = DRB1*07:01 (Homo sapiens, UniProt P01903+P01911, A100R/A102G/A103Q/D57E/D86V/E43K/F76Y/K127E/L162R/M171V/P40G/Q125H/Q99D/R33Q/R42Y/R54Q/S133A/S66F/T210M/V115G/Y107V/Y59L/Y89S); details: Other DR, competition with radiolabeled peptide, two-day incubation, three or more independent experiments
# DQB1*03:01 = DQB1*03:01 (Homo sapiens, UniProt P01909+P01920); details: DQ, competition with radiolabeled peptide, two-day incubation, three or more independent experiments
# DRB1*04:05 = DRB1*04:05 (Homo sapiens, UniProt P01903+P01911, A100R/A169T/D86S/F76Y/I96L/K127E/L162R/M171V/N62H/P40V/Q125Y/R42H/S133A/S149N/S66Y/V115G/V209L/W38E); details: SE+, competition with radiolabeled peptide, two-day incubation, three or more independent experiments
# DPB1*04:01 = target: T6, DPB1*04:01 (Homo sapiens, UniProt P04440+P20036); details: DP; purified MHC, competition with radiolabeled peptide, two-day incubation, three or more independent experiments
# T6 construct: EBV transformed homozygous cell lines were used as sources of MHC molecules; endogenous in cells; host or cells: EBV transformed homozygous cell lines
# T6 sequence (P04440 30-258): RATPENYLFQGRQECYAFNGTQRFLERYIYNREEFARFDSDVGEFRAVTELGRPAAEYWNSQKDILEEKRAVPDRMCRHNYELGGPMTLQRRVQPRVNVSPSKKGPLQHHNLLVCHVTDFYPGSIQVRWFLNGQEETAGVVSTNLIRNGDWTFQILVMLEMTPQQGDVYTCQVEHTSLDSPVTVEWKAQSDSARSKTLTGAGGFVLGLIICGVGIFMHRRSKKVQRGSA
# T6 sequence (P20036 29-260 partner): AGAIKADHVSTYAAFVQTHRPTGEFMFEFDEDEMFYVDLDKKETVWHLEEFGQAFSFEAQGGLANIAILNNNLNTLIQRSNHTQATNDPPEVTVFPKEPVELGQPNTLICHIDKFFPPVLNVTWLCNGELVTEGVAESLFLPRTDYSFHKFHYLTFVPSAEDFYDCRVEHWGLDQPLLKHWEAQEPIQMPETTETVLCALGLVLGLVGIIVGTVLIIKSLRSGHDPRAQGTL
# DRB3*01:01 = target: T7, DRB3*01:01 (Homo sapiens, UniProt P01903+P79483); details: Other DR, competition with radiolabeled peptide, two-day incubation, three or more independent experiments
# T7 construct: EBV transformed homozygous cell lines were used as sources of MHC molecules; endogenous in cells; host or cells: EBV transformed homozygous cell lines
# Sequence of DQB1*03:01 (P01920 33-261, other chains not shown): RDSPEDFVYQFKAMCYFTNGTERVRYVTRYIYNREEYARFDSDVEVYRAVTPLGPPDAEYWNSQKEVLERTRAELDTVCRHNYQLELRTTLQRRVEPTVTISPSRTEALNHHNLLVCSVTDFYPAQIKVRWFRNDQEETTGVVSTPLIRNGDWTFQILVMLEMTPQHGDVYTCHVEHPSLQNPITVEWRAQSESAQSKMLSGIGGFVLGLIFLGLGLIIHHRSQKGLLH
IC50 (DRB1*08:02),IC50 (DRB1*12:01),IC50 (DRB5*01:01),IC50 (DRB1*13:02),IC50 (DRB1*03:01),IC50 (HLA-DRB1*04:01),IC50 (HLA-DRB1*01:01),IC50 (DRB1*11:01),IC50 (DRB3*02:02),IC50 (DRB1*04:04),IC50 (DRB1*04:02),IC50 (DRB1*10:01),IC50 (DRB1*16:02),IC50 (DRB4*01:01),IC50 (DRB1*15:01),IC50 (DRB1*09:01),IC50 (DRB1*07:01),IC50 (DQB1*03:01),IC50 (DRB1*04:05),IC50 (DPB1*04:01),SMILES,further results
17 µM,11 µM,0.74 µM,0.552 µM,11.1 µM,0.827 µM,3.86 µM,29.7 µM,0.051 µM,0.854 µM,4.26 µM,2.42 µM,22.8 µM,2.34 µM,7.6 µM,28.5 µM,8.47 µM,0.382 µM,0.047 µM,16.2 µM,CC(C)C[C@H](NC(=O)[C@H](CC(C)C)NC(=O)[C@@H](NC(=O)[C@@H](N)C(C)C)C(C)C)C(=O)N[C@H](C(=O)N[C@@H](C)C(=O)N[C@H](C(=O)N[C@@H](CCC(=O)O)C(=O)NCC(=O)N[C@@H](CCCNC(N)=O)C(=O)N[C@H](C(=O)N[C@@H](CCCNC(=N)N)C(=O)N[C@H](C(=O)N[C@@H](CC(N)=O)C(=O)N[C@@H](CO)C(=O)N[C@@H](C)C(=O)N[C@@H](Cc1ccc(O)cc1)C(=O)N[C@@H](CCC(N)=O)C(=O)N[C@@H](CC(=O)O)C(=O)N[C@@H](CCCCN)C(=O)O)C(C)C)C(C)C)[C@@H](C)O)C(C)C [Aggrecan 84–103 Cit] (H-VVLLVATEG[Cit]VRVNSAYQDK-OH),IC50 (DRB3*01:01): 18.9 µM
2.15 µM,> 30 µM,10.2 µM,8.29 µM,0.072 µM,0.013 µM,0.232 µM,> 30 µM,0.481 µM,0.216 µM,0.211 µM,0.432 µM,> 30 µM,0.0073 µM,15.2 µM,0.276 µM,> 30 µM,4.12 µM,7.34 µM,> 30 µM,CSCC[C@H](NC(=O)[C@H](Cc1ccc(O)cc1)NC(=O)[C@H](CCC(N)=O)NC(=O)[C@@H](N)CC(C)C)C(=O)N[C@@H](CCCNC(N)=O)C(=O)N[C@@H](C)C(=O)N[C@@H](CC(=O)O)C(=O)N[C@@H](CCC(N)=O)C(=O)N[C@@H](C)C(=O)N[C@@H](C)C(=O)NCC(=O)NCC(=O)N[C@@H](CC(C)C)C(=O)N[C@@H](CCCNC(=N)N)C(=O)O [Collagen II 1236–1249 Cit] (H-LQYM[Cit]ADQAAGGLR-OH),IC50 (DRB3*01:01): 0.063 µM
35.7 µM,9.38 µM,0.0092 µM,> 30 µM,> 30 µM,12.9 µM,15.7 µM,> 30 µM,> 30 µM,2.32 µM,> 30 µM,8.48 µM,15.3 µM,12.7 µM,> 30 µM,> 30 µM,> 30 µM,> 30 µM,11.3 µM,> 30 µM,CC[C@H](C)[C@H](NC(=O)[C@H](CCCNC(N)=O)NC(=O)[C@H](CC(N)=O)NC(=O)[C@@H](NC(=O)[C@H](Cc1ccccc1)NC(=O)[C@H](CC(=O)O)NC(=O)[C@H](CCC(N)=O)NC(=O)[C@@H](N)CC(N)=O)[C@@H](C)O)C(=O)N[C@@H](CC(N)=O)C(=O)N[C@@H](CCCCN)C(=O)N[C@@H](CC(C)C)C(=O)N[C@@H](CCCCN)C(=O)N[C@@H](CC(N)=O)C(=O)N[C@@H](CO)C(=O)O [Fibrinogen 78–91 Cit] (H-NQDFTN[Cit]INKLKNS-OH),IC50 (DRB3*01:01): > 30 µM
